In the NIST ThermoML archive (doi:10.1021/je500977g):

Experiment: mn = molality of the nth substance listed, in mol/kg
Conditions: Liquid

C[N+](C)(C)[O-] [trimethylamine oxide] + O
mass density [kg/m3]
Conditions	278.15 K	288.15 K	298.15 K
101 kPa, Vibrating tube method, m1 = 0.0875	1000.16	999.28	997.22
101 kPa, Vibrating tube method, m1 = 0.1707	1000.36	999.46	997.4
101 kPa, Vibrating tube method, m1 = 0.2465	1000.55	999.63	997.57
101 kPa, Vibrating tube method, m1 = 0.3259	1000.75	999.82	997.74
101 kPa, Vibrating tube method, m1 = 0.4018	1000.95	1000	997.91
101 kPa, Vibrating tube method, m1 = 0.5862	1001.48	1000.47	998.35
101 kPa, Vibrating tube method, m1 = 0.7963	1002.11	1001.02	998.86
101 kPa, Vibrating tube method, m1 = 1.039	1002.89	1001.71	999.49
101 kPa, Vibrating tube method, m1 = 1.373	1004.01	1002.7	1000.4
101 kPa, Vibrating tube method, m1 = 1.923	1006.05	1004.48	1002.01
101 kPa, Vibrating tube method, m1 = 3.259	1011.69	1009.4	1006.44
101 kPa, Vibrating tube method, m1 = 4.325	1016.41	1013.58	1010.2
10000 kPa, Constant-volume piezometry, m1 = 0.1707	1005.1	1003.98	1001.77
10000 kPa, Constant-volume piezometry, m1 = 0.3259	1005.43	1004.27	1002.05
10000 kPa, Constant-volume piezometry, m1 = 0.5862	1006.05	1004.81	1002.57
10000 kPa, Constant-volume piezometry, m1 = 1.039	1007.25	1005.85	1003.56
10000 kPa, Constant-volume piezometry, m1 = 1.373	1008.19	1006.74	1004.38
10000 kPa, Constant-volume piezometry, m1 = 1.923	1009.95	1008.34	1005.83
10000 kPa, Constant-volume piezometry, m1 = 3.259	1015.17	1012.89	1009.93
10000 kPa, Constant-volume piezometry, m1 = 4.325	1019.59	1016.87	1013.44
25000 kPa, Constant-volume piezometry, m1 = 0.1707	1012.1	1010.63	1008.19
25000 kPa, Constant-volume piezometry, m1 = 0.3259	1012.31	1010.83	1008.39
25000 kPa, Constant-volume piezometry, m1 = 0.5862	1012.75	1011.2	1008.79
25000 kPa, Constant-volume piezometry, m1 = 1.039	1013.68	1012.01	1009.58
25000 kPa, Constant-volume piezometry, m1 = 1.373	1014.44	1012.71	1010.25
25000 kPa, Constant-volume piezometry, m1 = 1.923	1015.88	1014.05	1011.48
25000 kPa, Constant-volume piezometry, m1 = 3.259	1020.33	1018.05	–
25000 kPa, Constant-volume piezometry, m1 = 4.325	1024.4	1021.69	–
50000 kPa, Constant-volume piezometry, m1 = 0.1707	1023.24	1021.25	–
50000 kPa, Constant-volume piezometry, m1 = 0.3259	1023.31	1021.31	–
50000 kPa, Constant-volume piezometry, m1 = 0.5862	1023.5	1021.47	–
50000 kPa, Constant-volume piezometry, m1 = 1.039	1023.97	1021.88	–
50000 kPa, Constant-volume piezometry, m1 = 1.373	1024.42	1022.31	–
50000 kPa, Constant-volume piezometry, m1 = 1.923	1025.37	1023.22	–
50000 kPa, Constant-volume piezometry, m1 = 3.259	1028.7	1026.33	–
50000 kPa, Constant-volume piezometry, m1 = 4.325	1032.12	1029.39	–
75000 kPa, Constant-volume piezometry, m1 = 0.1707	1033.79	1031.35	–
75000 kPa, Constant-volume piezometry, m1 = 0.3259	1033.7	1031.27	–
75000 kPa, Constant-volume piezometry, m1 = 0.5862	1033.63	1031.21	–
75000 kPa, Constant-volume piezometry, m1 = 1.039	1033.68	1031.28	–
75000 kPa, Constant-volume piezometry, m1 = 1.373	1033.85	1031.46	–
75000 kPa, Constant-volume piezometry, m1 = 1.923	1034.37	1031.97	–
75000 kPa, Constant-volume piezometry, m1 = 3.259	1036.77	1034.24	–
75000 kPa, Constant-volume piezometry, m1 = 4.325	1039.49	1036.73	–
100000 kPa, Constant-volume piezometry, m1 = 0.1707	1043.78	1040.95	–
100000 kPa, Constant-volume piezometry, m1 = 0.3259	1043.57	1040.74	–
100000 kPa, Constant-volume piezometry, m1 = 0.5862	1043.26	1040.48	–
100000 kPa, Constant-volume piezometry, m1 = 1.039	1042.96	1040.22	–
100000 kPa, Constant-volume piezometry, m1 = 1.373	1042.87	1040.16	–
100000 kPa, Constant-volume piezometry, m1 = 1.923	1043.01	1040.3	–
100000 kPa, Constant-volume piezometry, m1 = 3.259	1044.64	1041.8	–
100000 kPa, Constant-volume piezometry, m1 = 4.325	1046.85	1043.78	–
